# Results taken from patent US12208092B2, “Compositions and methods for administering paltusotine to patients with hepatic impairment” (CRINETICS PHARMACEUTICALS, INC., priority 2023, dated 2025).
# Assay: Phase 1 hepatic impairment study, safety (TEAEs) after single oral 20 mg tablet
# [1] = normal hepatic function (N = 14)
# [2] = severe hepatic impairment (N = 6)
# Description: The secondary objective of the study was to assess the safety and tolerability of a single dose of paltusotine in subjects with varying degrees of hepatic impairment.
# Safety and tolerability were assessed by the following endpoints: reported adverse events (AEs), clinical laboratory test results (hematology, coagulation, serum chemistry, and urinalysis), vital sign measurements, and 12-lead electrocardiogram results
# All 36 subjects who were enrolled in the study received all planned single doses of paltusotine 20 mg (1×20 mg tablet) and were included in the safety and PK analysis populations.
smiles,measurement,setting,value
"N#Cc1cccc(-c2ccc3ncc(-c4cc(F)cc(F)c4)c(N4CCC(N)CC4)c3c2)c1O [paltusotine, 3-[4-(4-amino-1-piperidyl)-3-(3,5-difluorophenyl)-6-quinolyl]-2-hydroxybenzonitrile]","TEAE SOC Gastrointestinal disorders, number of occurrences",[1],5
same,"TEAE SOC Gastrointestinal disorders, subjects n (%)",[1],4 (28.6%)
same,"TEAE SOC General disorders and administration site conditions, subjects n (%)",[1],0
same,"TEAE SOC Infections and infestations, subjects n (%)",[1],0
same,"TEAE SOC Nervous system disorders, number of occurrences",[1],1
same,"TEAE SOC Nervous system disorders, subjects n (%)",[1],1 (7.1%)
same,"TEAE SOC Renal and urinary disorders, subjects n (%)",[1],0
same,"TEAEs Not Related to study drug (strongest relationship), subjects n (%)",[1],1 (7.1%)
same,"TEAEs Not Related to study drug, number of occurrences",[1],1
same,"TEAEs Related to study drug (strongest relationship), subjects n (%)",[1],3 (21.4%)
same,"TEAEs Related to study drug, number of occurrences",[1],5
same,"TEAEs by maximum severity: Mild, number of occurrences",[1],5
same,"TEAEs by maximum severity: Mild, subjects n (%)",[1],3 (21.4%)
same,"TEAEs by maximum severity: Moderate, number of occurrences",[1],1
same,"TEAEs by maximum severity: Moderate, subjects n (%)",[1],1 (7.1%)
same,"TEAEs by maximum severity: Severe, subjects n (%)",[1],0
same,Total number of SAEs reported,[1],0
same,Total number of TEAEs reported,[1],6
same,"Any SAEs, number of occurrences",overall (N = 36),1
same,"Any TEAE, number of occurrences",overall (N = 36),17
same,"Related TEAE Abdominal discomfort, number of occurrences",overall (N = 36),1
same,"Related TEAE Abdominal discomfort, subjects n (%)",overall (N = 36),1 (2.8%)
same,"Related TEAE Diarrhea, number of occurrences",overall (N = 36),5
same,"Related TEAE Diarrhea, subjects n (%)",overall (N = 36),5 (13.9%)
same,"Related TEAE Epigastric discomfort, number of occurrences",overall (N = 36),1
same,"Related TEAE Epigastric discomfort, subjects n (%)",overall (N = 36),1 (2.8%)
same,"Related TEAE Fatigue, number of occurrences",overall (N = 36),1
same,"Related TEAE Fatigue, subjects n (%)",overall (N = 36),1 (2.8%)
same,"Related TEAE Haematuria, number of occurrences",overall (N = 36),1
same,"Related TEAE Haematuria, subjects n (%)",overall (N = 36),1 (2.8%)
same,"Related TEAE Headache, number of occurrences",overall (N = 36),1
same,"Related TEAE Headache, subjects n (%)",overall (N = 36),1 (2.8%)
same,"Related TEAE Neutropenia, number of occurrences",overall (N = 36),1
same,"Related TEAE Neutropenia, subjects n (%)",overall (N = 36),1 (2.8%)
same,"Related TEAE Pain, number of occurrences",overall (N = 36),1
same,"Related TEAE Pain, subjects n (%)",overall (N = 36),1 (2.8%)
same,"Related TEAE Paraesthesia, number of occurrences",overall (N = 36),1
same,"Related TEAE Paraesthesia, subjects n (%)",overall (N = 36),1 (2.8%)
same,"SAEs Not related to study drug (strongest relationship), subjects n (%)",overall (N = 36),1 (2.8%)
same,"SAEs Not related to study drug, number of occurrences",overall (N = 36),1
same,"SAEs Related to study drug (strongest relationship), subjects",overall (N = 36),0
same,"Subjects reporting any SAEs, subjects n (%)",overall (N = 36),1 (2.8%)
same,"TEAE Abdominal discomfort, number of occurrences",overall (N = 36),1
same,"TEAE Abdominal discomfort, subjects n (%)",overall (N = 36),1 (2.8%)
same,"TEAE COVID-19, number of occurrences",overall (N = 36),1
same,"TEAE COVID-19, subjects n (%)",overall (N = 36),1 (2.8%)
same,"TEAE Death, number of occurrences",overall (N = 36),1
same,"TEAE Death, subjects n (%)",overall (N = 36),1 (2.8%)
same,"TEAE Diarrhea, number of occurrences",overall (N = 36),6
same,"TEAE Diarrhea, subjects n (%)",overall (N = 36),6 (16.7%)
same,"TEAE Epigastric discomfort, number of occurrences",overall (N = 36),1
same,"TEAE Epigastric discomfort, subjects n (%)",overall (N = 36),1 (2.8%)
same,"TEAE Fatigue, number of occurrences",overall (N = 36),1
same,"TEAE Fatigue, subjects n (%)",overall (N = 36),1 (2.8%)
same,"TEAE Haematuria, number of occurrences",overall (N = 36),1
same,"TEAE Haematuria, subjects n (%)",overall (N = 36),1 (2.8%)
same,"TEAE Headache, number of occurrences",overall (N = 36),2
same,"TEAE Headache, subjects n (%)",overall (N = 36),2 (5.6%)
same,"TEAE Neutropenia, number of occurrences",overall (N = 36),1
same,"TEAE Neutropenia, subjects n (%)",overall (N = 36),1 (2.8%)
same,"TEAE Pain, number of occurrences",overall (N = 36),1
same,"TEAE Pain, subjects n (%)",overall (N = 36),1 (2.8%)
same,"TEAE Paraesthesia, number of occurrences",overall (N = 36),1
same,"TEAE Paraesthesia, subjects n (%)",overall (N = 36),1 (2.8%)
same,"TEAE SOC Blood and lymphatic system disorders, number of occurrences",overall (N = 36),1
same,"TEAE SOC Blood and lymphatic system disorders, subjects n (%)",overall (N = 36),1 (2.8%)
same,"TEAE SOC Gastrointestinal disorders, number of occurrences",overall (N = 36),8
same,"TEAE SOC Gastrointestinal disorders, subjects n (%)",overall (N = 36),7 (19.4%)
same,"TEAE SOC General disorders and administration site conditions, number of occurrences",overall (N = 36),3
same,"TEAE SOC General disorders and administration site conditions, subjects n (%)",overall (N = 36),2 (5.6%)
same,"TEAE SOC Infections and infestations, number of occurrences",overall (N = 36),1
same,"TEAE SOC Infections and infestations, subjects n (%)",overall (N = 36),1 (2.8%)
same,"TEAE SOC Nervous system disorders, number of occurrences",overall (N = 36),3
same,"TEAE SOC Nervous system disorders, subjects n (%)",overall (N = 36),3 (8.3%)
same,"TEAE SOC Renal and urinary disorders, number of occurrences",overall (N = 36),1
same,"TEAE SOC Renal and urinary disorders, subjects n (%)",overall (N = 36),1 (2.8%)
same,"TEAEs Not Related to study drug (strongest relationship), subjects n (%)",overall (N = 36),1 (2.8%)
same,"TEAEs Not Related to study drug, number of occurrences",overall (N = 36),4
same,"TEAEs Related to study drug, number of occurrences",overall (N = 36),13
same,"TEAEs by maximum severity: Mild, number of occurrences",overall (N = 36),12
same,"TEAEs by maximum severity: Mild, subjects n (%)",overall (N = 36),6 (16.7%)
same,"TEAEs by maximum severity: Moderate, number of occurrences",overall (N = 36),4
same,"TEAEs by maximum severity: Moderate, subjects n (%)",overall (N = 36),3 (8.3%)
same,"TEAEs by maximum severity: Severe, number of occurrences",overall (N = 36),1
same,"TEAEs by maximum severity: Severe, subjects n (%)",overall (N = 36),1 (2.8%)
same,Total number of SAEs reported,overall (N = 36),1
same,Total number of TEAEs reported,overall (N = 36),17
same,"Any TEAE, number of occurrences",[2],4
same,"Related TEAE Abdominal discomfort, subjects n (%)",[2],0
same,"Related TEAE Diarrhea, number of occurrences",[2],1
same,"Related TEAE Diarrhea, subjects n (%)",[2],1 (16.7%)
same,"Related TEAE Epigastric discomfort, subjects n (%)",[2],0
same,"Related TEAE Fatigue, subjects n (%)",[2],0
same,"Related TEAE Haematuria, subjects n (%)",[2],0
same,"Related TEAE Headache, subjects n (%)",[2],0
same,"Related TEAE Neutropenia, number of occurrences",[2],1
same,"Related TEAE Neutropenia, subjects n (%)",[2],1 (16.7%)
same,"Related TEAE Pain, subjects n (%)",[2],0
same,"Related TEAE Paraesthesia, subjects n (%)",[2],0
same,"SAEs Not related to study drug (strongest relationship), subjects n (%)",[2],0
same,"SAEs Related to study drug (strongest relationship), subjects",[2],0
same,"Subjects reporting any SAEs, subjects n (%)",[2],0
same,"Subjects reporting any TEAE, subjects n (%)",[2],2 (33.3%)
same,"TEAE Abdominal discomfort, subjects n (%)",[2],0
same,"TEAE COVID-19, number of occurrences",[2],1
same,"TEAE COVID-19, subjects n (%)",[2],1 (16.7%)
same,"TEAE Death, subjects n (%)",[2],0
same,"TEAE Diarrhea, number of occurrences",[2],1
same,"TEAE Diarrhea, subjects n (%)",[2],1 (16.7%)
same,"TEAE Epigastric discomfort, subjects n (%)",[2],0
same,"TEAE Fatigue, subjects n (%)",[2],0
same,"TEAE Haematuria, subjects n (%)",[2],0
same,"TEAE Headache, number of occurrences",[2],1
same,"TEAE Headache, subjects n (%)",[2],1 (16.7%)
same,"TEAE Neutropenia, number of occurrences",[2],1
same,"TEAE Neutropenia, subjects n (%)",[2],1 (16.7%)
same,"TEAE Pain, subjects n (%)",[2],0
same,"TEAE Paraesthesia, subjects n (%)",[2],0
same,"TEAE SOC Blood and lymphatic system disorders, number of occurrences",[2],1
same,"TEAE SOC Blood and lymphatic system disorders, subjects n (%)",[2],1 (16.7%)
same,"TEAE SOC Gastrointestinal disorders, number of occurrences",[2],1
same,"TEAE SOC Gastrointestinal disorders, subjects n (%)",[2],1 (16.7%)
same,"TEAE SOC General disorders and administration site conditions, subjects n (%)",[2],0
same,"TEAE SOC Infections and infestations, number of occurrences",[2],1
same,"TEAE SOC Infections and infestations, subjects n (%)",[2],1 (16.7%)
same,"TEAE SOC Nervous system disorders, number of occurrences",[2],1
same,"TEAE SOC Nervous system disorders, subjects n (%)",[2],1 (16.7%)
same,"TEAE SOC Renal and urinary disorders, subjects n (%)",[2],0
same,"TEAEs Not Related to study drug (strongest relationship), subjects n (%)",[2],0
same,"TEAEs Related to study drug (strongest relationship), subjects n (%)",[2],2 (33.3%)
same,"TEAEs Related to study drug, number of occurrences",[2],2
same,"TEAEs by maximum severity: Mild, number of occurrences",[2],2
same,"TEAEs by maximum severity: Mild, subjects n (%)",[2],1 (16.7%)
same,"TEAEs by maximum severity: Moderate, number of occurrences",[2],2
same,"TEAEs by maximum severity: Moderate, subjects n (%)",[2],1 (16.7%)
same,"TEAEs by maximum severity: Severe, subjects n (%)",[2],0
same,Total number of SAEs reported,[2],0
same,Total number of TEAEs reported,[2],4
